For experiment [1] the following is noted: as reported in the literature; cited from earlier work.
For experiment [2], the system named is p-Erk1/2. It counts as cell-based, human.
For experiment [3], the system named is p-Smad2. It is filed as cell-based, human.
In experiment [4] the test system is human ES cells. Put plainly: Morphology (colony formation) of human ES cells after five serial passages. It is filed as cell-based. The method, then:
Two groups were prepared, with four different culture media (E6, E6+TGFβ1, E6+FGF2 and E8) in each group, and the peptide P13 was added to the 4 culture media in group 1. A total of eight different culture media were prepared.
The human ES cells were serially passaged five times under eight different conditions to detect the differences of morphologies and pluripotency markers. Please refer to FIG. 2a for the morphological difference results observed after five passages.
On the basis of the preliminary results, three groups were prepared, with four different culture media (E6, E6+TGFβ1, E6+FGF2 and E8) in each group, the peptide M6 was added to the four culture media in group 1, respectively, and the P13 was added in another group as the control. In this way, a total of twelve different culture media were prepared.
The human ES cells were serially passaged five times under 12 different conditions to detect the differences of morphologies and pluripotency markers. Please refer to FIG. 3a for the morphological difference results obtained after five passages (in the figure, the samples from left to right were E6, E6+P13, E6+TGFβ1, E6+TGFβ1+P13, E6+FGF2, E6+FGF2+P13, E8 and E8+P13).

For experiment [5], the system named is human ES cells. As to the kind of experiment: Survival / proliferation of human ES cells (cell number by flow cytometry). It is filed as cell-based. The conditions noted are these: E8 culture medium + peptide vs E8 culture medium; 24 h; P13 final concentration 200 μM; one-way ANOVA.
Experiment [6] deals with OCT4, SOX2 and NANOG. Put plainly: qPCR of self-renewal markers in human ES cells after five passages. It counts as cell-based. Particulars: for expression levels of SOX2 and NANOG: one-way ANOVA ***p<0.001. The text has this: The self-renewal markers of the human ES cells were detected by using a quantitative polymerase chain reaction (qPCR) method.
The differential expressions of mRNAs of OCT4, SOX2 and NANOG were detected under the culture conditions of the above eight different culture media. Please refer to FIG. 2b for the detection results.
The self-renewal markers of the human ES cells were detected by using qPCR assay.
The differential expressions of mRNAs of OCT4, SOX2 and NANOG were detected under 12 different conditions. Please refer to FIG. 3b for the detection results (in the figure, the samples from left to right were E6, E6+P13, E6+M6, E6+TGFβ1, E6+TGFβ1+P13, E6+TGFβ1+M6, E6+FGF2, E6+FGF2+P13, E6+FGF2+M6, E8, E8+P13 and E8+M6).

Experiment [7] concerns human ES cells. As to the kind of experiment: Cell-penetrating ability of FITC-labeled peptides, confocal microscopy. Particulars: 24 h. It is filed as cell-based. The method, then: The human ES cells were treated with FITC-labeled P13 and M6 for 24 h, respectively, and the positions of the peptides were confirmed under a confocal microscope by immunostaining with nuclear dye combined with cytoplasmic membrane dye.
Immunostaining of human ES cells treated with the fluorescently labeled P13/M6: Human ES cells were cultured on a sterile cover slide, and a 12-well plate was coated with matrix gel at a concentration of 1 mg/ml for 1-2 h. After 24 h, the cells were washed with a DMEM-F12 culture medium, the E8 culture medium was used for replacement, and the cells were treated with the fluorescently labeled peptide for 24 h. Then, the cell membranes were stained by using the CellMask™ crimson plasma membrane (Thermo Fisher), and incubation was performed at 37° C. for 10 min. The staining solution was removed, 200 μL of 4.0% formaldehyde was added to the culture medium, and incubation was performed at 37° C. for 10 min. The culture medium was then removed. The cells were washed with 1×PBS three times and incubated with 10 μl of DAPI (a DNA staining agent) and a mounting medium for one minute, and the cover slide was mounted and sealed with nail polish to prevent drying. The samples were imaged with a Carl Zeiss confocal LSM710 microscope.

[8] abbreviates: E6 culture medium + peptide vs E6 control culture medium.

Entries after “also recorded” stand apart in the source; their conditions may differ. Read-outs that look alike come from different tables or passages of the source. Ends that are not written are not given here.

Regarding `N=C(N)NCCC[C@H](N)C(=O)O` [arginine], the “heparin-binding affinity relative to lysine” value in experiment [1] is recorded as 2.5 times.

For the compound “FGF2: growth factor component of the E8 culture medium, 16.4 kDa”, the p-Erk1/2 expression result in experiment [2] (growth factor in E6 culture medium (FIG. 5d lanes 1-2)) was “up-regulated”.

For the compound “Gonearrestide (WCYKLPDRVSIKEKGRCN-NH2; cysteine pairing not given here) [P13]”, the “expression level of p-Erk1/2” value is on record as “significantly up-regulated” in experiment [2] (setting [8]), “up-regulated” in experiment [2] (E6 with P13 and/or FGF2 vs E6+TGFβ1) and “not significantly up-regulated” in experiment [2] (E8 with P13 vs E8). For the same compound, the “expression level of p-Smad2” value is recorded as “significantly up-regulated” in experiment [3] (setting [8]), “up-regulated” in experiment [3] (E6 with P13 and/or TGFβ1 vs E6+FGF2) and “up-regulated” in experiment [3] (E8 with P13 vs E8). Moreover, the “colony-forming morphology of human ES cells” value in experiment [4] (E6+TGFβ + peptide, after five passages, vs E6+TGFβ) was “still maintained their colony morphologies; also recorded: maintained their colony-forming morphologies; also recorded: mixed state of colonies and dispersed cells”. For the same compound, the “morphology of human ES cells” value in experiment [4] (peptide added to E6+FGF2, five generations) is given as “no significant morphological differences; also recorded: no significant difference in their morphologies”; in experiment [4] (peptide added to E8, five generations) it was “no significant morphological differences; also recorded: no significant difference in their morphologies”. Besides, in experiment [5], the “number of human ES cells that survived” value was “significantly higher”. Also, in experiment [6] (E6 + peptide in comparison with other conditions, five passages), the “mRNA expression levels of OCT4, SOX2 and NANOG” value was “low mRNA expression levels”. Moreover, the “expression levels of SOX2 and NANOG” value in experiment [6] (E6+FGF2 + peptide vs E6) and in experiment [6] (E8 + peptide vs E6) was “significantly up-regulated” in each case. Also, the “mRNA expression of OCT4, SOX2 and NANOG” value in experiment [6] (E6+TGFβ1 + peptide vs E6+TGFβ1) is listed as “up-regulated”. The “position of FITC-labeled peptide in human ES cells” value in experiment [7] (E8, confocal microscope) is given as “bound to the plasma membranes”. Further, the “cell-penetrating peptide (CPP) property” value in experiment [7] (none found in cytoplasm) is recorded as “did not belong to the CPP family”.

On to “TGFβ1: growth factor component of the E8 culture medium, 25.6 kDa homodimer linked by a disulfide bond”, for which the p-Erk1/2 expression result in experiment [2] (E6 with M6 or TGFβ in presence of SB431542 (10 μmol) / A8301 (1.0 μmol)) is recorded as “not observed”. For the same compound, the p-Smad2 expression result in experiment [3] (E6 with 1.0 μmol LDN189193 treated with TGFβ or M6 vs E6 with 1.0 μmol LDN189193) and in experiment [3] (growth factor in E6 culture medium (FIG. 5d lanes 3-4)) was “up-regulated” throughout.

The record behind these values is patent US12441767B2 (priority 2020, dated 2025).
